This assay concerns the target T1, Beta-hexosaminidase subunit alpha (Homo sapiens, UniProt P06865).
T1 sequence (P06865 whole entry): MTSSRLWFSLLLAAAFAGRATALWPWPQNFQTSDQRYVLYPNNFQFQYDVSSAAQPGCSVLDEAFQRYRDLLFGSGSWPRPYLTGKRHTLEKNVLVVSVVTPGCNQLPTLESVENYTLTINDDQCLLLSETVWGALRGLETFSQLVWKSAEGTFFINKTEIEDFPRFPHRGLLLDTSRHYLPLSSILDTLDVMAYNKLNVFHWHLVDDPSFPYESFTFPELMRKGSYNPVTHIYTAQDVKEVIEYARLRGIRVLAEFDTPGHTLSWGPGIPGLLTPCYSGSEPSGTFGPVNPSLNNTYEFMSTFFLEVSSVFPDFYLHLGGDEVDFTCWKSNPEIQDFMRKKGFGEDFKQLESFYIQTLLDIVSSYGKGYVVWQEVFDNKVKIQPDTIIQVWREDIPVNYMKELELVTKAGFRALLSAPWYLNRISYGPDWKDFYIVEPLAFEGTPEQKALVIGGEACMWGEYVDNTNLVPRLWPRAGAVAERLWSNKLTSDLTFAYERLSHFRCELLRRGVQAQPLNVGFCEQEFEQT
Kind of assay: Enzyme Inhibition Assay. The settings on record: 25 °C. An excerpt:
Enzyme assay based on 4-MU substrates with HTS to identify inhibitory compounds for Hex.

Each structure is given as a SMILES string.

One may read the IC50 as the point on the concentration scale where inhibition reaches its midpoint. `O=C1c2cccc3cccc(c23)C(=O)N1CCCO` [5141402] yielded a 50% inhibitory concentration (IC50) of 16 µM.
In turn, `O=C1NC(=O)c2cccc3cccc1c23` [BTB12933] displayed an IC50 of 18 µM.
The molecule `O=C1c2cccc3cccc(c23)C(=O)N1CC1CCCO1` (stereo not given) [M-31860] came in with an IC50 of 138 µM.
`O=C1c2cccc3cccc(c23)C(=O)N1CCCc1ccccn1` [M-31862] yielded an IC50 of 108 µM.
Molecule `CC(O)CCN1C(=O)c2cccc3cccc(c23)C1=O` (stereo not given) [M-31867] gave an IC50 of 31 µM. Against the preceding molecule, the IC50 is about 3.5-fold lower.

The values above are taken from BindingDB's records for doi:10.1016/j.chembiol.2006.12.006 (Research Institute, Hospital For Sick Children, 2007).
